Test system: human ventricular trabeculae
Assay: Action potential recording and pro-arrhythmic score analysis in human ventricular trabeculae (hVT);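 further: sharp microelectrode action potential recordings at 37°C in Tyrode-perfused trabeculae, 4 cumulative concentrations each applied 31 min, values averaged over last 30 APs, vehicle 0.1% DMSO as control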
Details: 1Hz; for Beat Escape (raw data) / EADs (raw data) / Refractoriness Escape (raw data): n=4 trabeculae
Description: Briefly, the human heart was transferred into a dissection vessel containing a cold (4°C), fresh proprietary dissection solution. The heart was maintained completely submerged in dissection solution. Ventricular trabeculae were dissected and transferred to the recording chamber.
Briefly, a single tissue was mounted into the experimental chamber filled with oxygenated Tyrode's external solution. The temperature of the solution was maintained at 37°C with flow rate at 5 mL per minute. The tissue was allowed to equilibrate for 30–60 min with stimulation (3 V, 3 ms) at a frequency of 1.0 Hz. High impedance borosilicate microelectrodes were prepared with a tip resistance of 10–20 MΩ once filled with 3 M KCl. Upon tissue impalement, the membrane potential was allowed to stabilize (typically, around −85 mV). Tissues with resting membrane potentials more positive than −75 mV were rejected. Bipolar stimulation at 1.5x threshold was applied and recordings were performed in continuous mode with sampling at 20 kHz using ADInstruments and LabChart Software.
Interruption of perfusion/oxygenation; (2). Absence of Aps following stimulation at baseline; (3). Time frame of drug exposure not respected; (4). Unstable response to stimulation at baseline; (5). Resting membrane potential (RMP) > −75 mV; 7). Maximal amplitude of AP (AMAX) <70 mV; 8). AP duration at 90% repolarization (APD90) <200 ms or >450 ms.
Experimental Procedure: Each test article was evaluated at 4 concentrations in 4 ventricular trabeculae derived from a minimum of 2 donor hearts. Testing concentrations were chosen based upon human free ETPC, aiming to cover 1–100-fold of human free ETPC. […] Briefly, following stabilization of each tissue, APs were collected and assessed for 31 min in vehicle control solution (Tyrode with 0.1% DMSO) at stimulation frequencies of 1 Hz for 25 min, 2 Hz for 3 min and then 1 Hz for 3 min. Following this vehicle control period, 4 concentrations of a test compound were applied sequentially and cumulatively. Each concentration was applied for 31 min with the same stimulation sequence as in vehicle controls.
For each frequency tested, the last 30 APs acquired at the end of the period were averaged for vehicle controls and for each test article concentration. Analysis at 1 Hz included only the last 30 APs of the initial 25-min incubation period. The following AP parameters and pro-arrhythmia variables were analyzed offline upon the completion of recordings:
• RMP (mV) • AMAX (mV) • AP duration at percent repolarization (APD20, APD30, APD50, APD60, APD90) (ms) • Short term variability analysis of AP duration (STV): Beat-to-beat variability of repolarization was quantified as STV from APD90 Poincare plots over a period of 30 sec.
Compound effects were quantified relative to the data collected during the vehicle control period (see Figure 1). […] Additionally, based on AnaBios historical data, threshold values for changes over baseline control for AP instability, APD alternans, Maximum APD dispersion and ERP (APD) were based upon an effect level of 10%. When applicable, differences were tested for statistical significance using the unpaired Student's t-test. A value of P < 0.05 was considered significant.
AP parameters and pro-arrhythmia variables were combined into a meaningful, single score to assess the pro-arrhythmic risk of a compound at each concentration tested. The pro-arrhythmic potential of compounds at 1 or 2 Hz was determined by assigning a weighted scale to each variable (Table 1).

Nc1nnc(-c2cccc(Cl)c2Cl)c(N)n1 [LAMOTRIGINE, Lamotrigine]
AMAX (average raw data) (0.6-FOLD free ETPC (17µM)): 101
AMAX percentage change compared to vehicle control (0.6-FOLD free ETPC (17µM)): -5%
APD30 (average raw data) (0.6-FOLD free ETPC (17µM)): 147
APD30 percentage change compared to vehicle control (0.6-FOLD free ETPC (17µM)): -2%
APD50 (average raw data) (0.6-FOLD free ETPC (17µM)): 197
APD50 percentage change compared to vehicle control (0.6-FOLD free ETPC (17µM)): 0%
APD90 (average raw data) (0.6-FOLD free ETPC (17µM)): 282
APD90 percentage change compared to vehicle control (0.6-FOLD free ETPC (17µM)): 1%
Alternans (average raw data) (0.6-FOLD free ETPC (17µM)): 0.88
Alternans percentage change compared to vehicle control (0.6-FOLD free ETPC (17µM)): -35%
Beat Escape percentage change compared to vehicle control (0.6-FOLD free ETPC (17µM)): 0%
EADs percentage change compared to vehicle control (0.6-FOLD free ETPC (17µM)): 0%
ERP (average raw data) (0.6-FOLD free ETPC (17µM)): 0.44
ERP percentage change compared to vehicle control (0.6-FOLD free ETPC (17µM)): 4%
Max Dispersion (average raw data) (0.6-FOLD free ETPC (17µM)): 4.42
Max Dispersion percentage change compared to vehicle control (0.6-FOLD free ETPC (17µM)): -5%
RMP (average raw data) (0.6-FOLD free ETPC (17µM)): -83
RMP percentage change compared to vehicle control (0.6-FOLD free ETPC (17µM)): -3%
Refractoriness Escape percentage change compared to vehicle control (0.6-FOLD free ETPC (17µM)): 0%
STV (average raw data) (0.6-FOLD free ETPC (17µM)): 0.60
STV percentage change compared to vehicle control (0.6-FOLD free ETPC (17µM)): -26%
Triangulation (average raw data) (0.6-FOLD free ETPC (17µM)): 136
Triangulation percentage change compared to vehicle control (0.6-FOLD free ETPC (17µM)): 3%
Beat Escape (raw data) (0.6-FOLD free ETPC (17µM)): 0
EADs (raw data) (0.6-FOLD free ETPC (17µM)): 0
Refractoriness Escape (raw data) (0.6-FOLD free ETPC (17µM)): 0
AMAX (average raw data) (6-FOLD free ETPC (17µM)): 106
AMAX percentage change compared to vehicle control (6-FOLD free ETPC (17µM)): -1%
APD30 (average raw data) (6-FOLD free ETPC (17µM)): 128
APD30 percentage change compared to vehicle control (6-FOLD free ETPC (17µM)): -15%
APD50 (average raw data) (6-FOLD free ETPC (17µM)): 169
APD50 percentage change compared to vehicle control (6-FOLD free ETPC (17µM)): -14%
APD90 (average raw data) (6-FOLD free ETPC (17µM)): 249
APD90 percentage change compared to vehicle control (6-FOLD free ETPC (17µM)): -11%
Alternans (average raw data) (6-FOLD free ETPC (17µM)): 1.29
Alternans percentage change compared to vehicle control (6-FOLD free ETPC (17µM)): -5%
Beat Escape percentage change compared to vehicle control (6-FOLD free ETPC (17µM)): 0%
EADs percentage change compared to vehicle control (6-FOLD free ETPC (17µM)): 0%
ERP (average raw data) (6-FOLD free ETPC (17µM)): 0.41
ERP percentage change compared to vehicle control (6-FOLD free ETPC (17µM)): -3%
Max Dispersion (average raw data) (6-FOLD free ETPC (17µM)): 5.13
Max Dispersion percentage change compared to vehicle control (6-FOLD free ETPC (17µM)): 10%
RMP (average raw data) (6-FOLD free ETPC (17µM)): -87
RMP percentage change compared to vehicle control (6-FOLD free ETPC (17µM)): 2%
Refractoriness Escape percentage change compared to vehicle control (6-FOLD free ETPC (17µM)): 0%
STV (average raw data) (6-FOLD free ETPC (17µM)): 0.81
STV percentage change compared to vehicle control (6-FOLD free ETPC (17µM)): 302%
Triangulation (average raw data) (6-FOLD free ETPC (17µM)): 121
Triangulation percentage change compared to vehicle control (6-FOLD free ETPC (17µM)): -8%
Beat Escape (raw data) (6-FOLD free ETPC (17µM)): 0
EADs (raw data) (6-FOLD free ETPC (17µM)): 0
Refractoriness Escape (raw data) (6-FOLD free ETPC (17µM)): 0
AMAX (average raw data) (18-FOLD free ETPC (17µM)): 97
AMAX percentage change compared to vehicle control (18-FOLD free ETPC (17µM)): -9%
APD30 (average raw data) (18-FOLD free ETPC (17µM)): 115
APD30 percentage change compared to vehicle control (18-FOLD free ETPC (17µM)): -23%
APD50 (average raw data) (18-FOLD free ETPC (17µM)): 152
APD50 percentage change compared to vehicle control (18-FOLD free ETPC (17µM)): -23%
APD90 (average raw data) (18-FOLD free ETPC (17µM)): 244
APD90 percentage change compared to vehicle control (18-FOLD free ETPC (17µM)): -13%
Alternans (average raw data) (18-FOLD free ETPC (17µM)): 7.23
Alternans percentage change compared to vehicle control (18-FOLD free ETPC (17µM)): 435%
Beat Escape percentage change compared to vehicle control (18-FOLD free ETPC (17µM)): 25%
EADs percentage change compared to vehicle control (18-FOLD free ETPC (17µM)): 0%
ERP (average raw data) (18-FOLD free ETPC (17µM)): 0.39
ERP percentage change compared to vehicle control (18-FOLD free ETPC (17µM)): -7%
Max Dispersion (average raw data) (18-FOLD free ETPC (17µM)): 10.63
Max Dispersion percentage change compared to vehicle control (18-FOLD free ETPC (17µM)): 127%
RMP (average raw data) (18-FOLD free ETPC (17µM)): -90
RMP percentage change compared to vehicle control (18-FOLD free ETPC (17µM)): 5%
Refractoriness Escape percentage change compared to vehicle control (18-FOLD free ETPC (17µM)): 0%
STV (average raw data) (18-FOLD free ETPC (17µM)): 5.08
STV percentage change compared to vehicle control (18-FOLD free ETPC (17µM)): 477%
Triangulation (average raw data) (18-FOLD free ETPC (17µM)): 130
Triangulation percentage change compared to vehicle control (18-FOLD free ETPC (17µM)): -2%
Beat Escape (raw data) (18-FOLD free ETPC (17µM)): 1
EADs (raw data) (18-FOLD free ETPC (17µM)): 0
Refractoriness Escape (raw data) (18-FOLD free ETPC (17µM)): 0
AMAX (average raw data) (59-FOLD free ETPC (17µM)): 39
AMAX percentage change compared to vehicle control (59-FOLD free ETPC (17µM)): -63%
APD30 (average raw data) (59-FOLD free ETPC (17µM)): 48
APD30 percentage change compared to vehicle control (59-FOLD free ETPC (17µM)): -69%
APD50 (average raw data) (59-FOLD free ETPC (17µM)): 66
APD50 percentage change compared to vehicle control (59-FOLD free ETPC (17µM)): -67%
APD90 (average raw data) (59-FOLD free ETPC (17µM)): 169
APD90 percentage change compared to vehicle control (59-FOLD free ETPC (17µM)): -38%
Alternans (average raw data) (59-FOLD free ETPC (17µM)): 6.14
Alternans percentage change compared to vehicle control (59-FOLD free ETPC (17µM)): 354%
Beat Escape percentage change compared to vehicle control (59-FOLD free ETPC (17µM)): 100%
EADs percentage change compared to vehicle control (59-FOLD free ETPC (17µM)): 0%
ERP (average raw data) (59-FOLD free ETPC (17µM)): 0.38
ERP percentage change compared to vehicle control (59-FOLD free ETPC (17µM)): -10%
Max Dispersion (average raw data) (59-FOLD free ETPC (17µM)): 28.20
Max Dispersion percentage change compared to vehicle control (59-FOLD free ETPC (17µM)): 503%
RMP (average raw data) (59-FOLD free ETPC (17µM)): -74
RMP percentage change compared to vehicle control (59-FOLD free ETPC (17µM)): -9%
Refractoriness Escape percentage change compared to vehicle control (59-FOLD free ETPC (17µM)): 0%
STV (average raw data) (59-FOLD free ETPC (17µM)): 3.94
STV percentage change compared to vehicle control (59-FOLD free ETPC (17µM)): 2736%
Triangulation (average raw data) (59-FOLD free ETPC (17µM)): 121
Triangulation percentage change compared to vehicle control (59-FOLD free ETPC (17µM)): 1%
Beat Escape (raw data) (59-FOLD free ETPC (17µM)): 4
EADs (raw data) (59-FOLD free ETPC (17µM)): 0

— article PMC5760531, “Action Potential Recording and Pro-arrhythmia Risk Analysis in Human Ventricular Trabeculae” (Frontiers in Physiology, 2018)
